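Step 1: Grow cells in 96-well plates. Step 2: Expose to compound for 48 hours at 5 concentrations. Step 3: Interpolate endpoints linearly; if unreached, use highest concentration. TGI: concentration producing complete growth inhibition.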
Experiments:
Experiment in all cases: inhibition of tumour cell growth, NCI panel, 48 h
SNB-75 CNS = test system: SNB-75 CNS
NCI-H522 lung = test system: NCI-H522 lung
OVCAR-8 ovarian = test system: OVCAR-8 ovarian
SF-268 CNS = test system: SF-268 CNS
MOLT-4 leukemia = test system: MOLT-4 leukemia
IGROV1 ovarian = test system: IGROV1 ovarian
K-562 leukemia = test system: K-562 leukemia
ACHN renal = test system: ACHN renal
SK-MEL-28 melanoma = test system: SK-MEL-28 melanoma
HCC-2998 colon = test system: HCC-2998 colon
NCI-H23 lung = test system: NCI-H23 lung
NCI-H460 lung = test system: NCI-H460 lung
UACC-257 melanoma = test system: UACC-257 melanoma
DU-145 prostate = test system: DU-145 prostate
HS 578T breast = test system: HS 578T breast
UACC-62 melanoma = test system: UACC-62 melanoma
U251 CNS = test system: U251 CNS
RXF 393 renal = test system: RXF 393 renal

Measured: TGI

COc1cc(C2SCC(=O)N2c2ccc(Cl)cc2)cc(I)c1O (stereo not given)
> 100 µM: SNB-75 CNS | NCI-H522 lung | OVCAR-8 ovarian | SF-268 CNS | MOLT-4 leukemia | IGROV1 ovarian | K-562 leukemia | ACHN renal | SK-MEL-28 melanoma | HCC-2998 colon | NCI-H23 lung | NCI-H460 lung | UACC-257 melanoma | DU-145 prostate | HS 578T breast | U251 CNS | RXF 393 renal
> 28.5 µM: UACC-62 melanoma

COc1ccc(CCc2ccc(O)c(C(=O)O)c2)cc1OC
> 100 µM: SNB-75 CNS | NCI-H522 lung | OVCAR-8 ovarian | SF-268 CNS | MOLT-4 leukemia | IGROV1 ovarian | K-562 leukemia | ACHN renal | SK-MEL-28 melanoma | HCC-2998 colon | NCI-H23 lung | NCI-H460 lung | UACC-257 melanoma | DU-145 prostate | HS 578T breast | UACC-62 melanoma | U251 CNS | RXF 393 renal

O=C(N/N=C\c1ccc([N+](=O)[O-])cc1)Nc1cccc2ccccc12
> 100 µM: NCI-H522 lung | MOLT-4 leukemia | IGROV1 ovarian | K-562 leukemia | ACHN renal | SK-MEL-28 melanoma | HCC-2998 colon | UACC-257 melanoma | DU-145 prostate
23.6 µM: U251 CNS
> 28.8 µM: SNB-75 CNS
34.7 µM: OVCAR-8 ovarian
> 51.9 µM: NCI-H460 lung
32 µM: HS 578T breast
34.5 µM: RXF 393 renal
> 55.5 µM: SF-268 CNS
61.9 µM: NCI-H23 lung
> 49.8 µM: UACC-62 melanoma

CN(C)CCNC1=CC(=O)c2c(O)ccc(O)c2C1=O
26.3 µM: SK-MEL-28 melanoma
5.63 µM: UACC-62 melanoma
25.8 µM: ACHN renal
9.85 µM: NCI-H522 lung
26.7 µM: DU-145 prostate
> 100 µM: MOLT-4 leukemia | K-562 leukemia
5.61 µM: UACC-257 melanoma
31.9 µM: SNB-75 CNS
14.6 µM: NCI-H460 lung
53.6 µM: HS 578T breast
31.4 µM: RXF 393 renal
18.7 µM: NCI-H23 lung
28.1 µM: SF-268 CNS
13.5 µM: HCC-2998 colon
24.4 µM: U251 CNS
25.9 µM: OVCAR-8 ovarian
16.7 µM: IGROV1 ovarian

CC(=O)O[C@H]1CC[C@@]2(C)C(=CC[C@@H]3[C@@H]2CC[C@]2(C)c4c(cc(C#N)c(=N)n4C(C)=O)C[C@@H]32)C1
79.3 µM: DU-145 prostate
30.3 µM: NCI-H460 lung
29.7 µM: UACC-62 melanoma
62.7 µM: SF-268 CNS
37.6 µM: OVCAR-8 ovarian
37.3 µM: SK-MEL-28 melanoma
41.9 µM: HCC-2998 colon
35.8 µM: MOLT-4 leukemia
33.9 µM: UACC-257 melanoma
32.1 µM: NCI-H23 lung
44.9 µM: SNB-75 CNS
> 100 µM: K-562 leukemia | U251 CNS
47.8 µM: ACHN renal
66.5 µM: RXF 393 renal
59.6 µM: HS 578T breast
53.3 µM: IGROV1 ovarian
35.9 µM: NCI-H522 lung

COc1ccc(C2SCC(=O)N2NC(=O)C(C)Oc2ccccc2Cl)cc1 (stereo not given)
79.5 µM: MOLT-4 leukemia
> 100 µM: SNB-75 CNS | NCI-H522 lung | OVCAR-8 ovarian | SF-268 CNS | IGROV1 ovarian | K-562 leukemia | ACHN renal | SK-MEL-28 melanoma | HCC-2998 colon | NCI-H23 lung | NCI-H460 lung | UACC-257 melanoma | DU-145 prostate | HS 578T breast | UACC-62 melanoma | U251 CNS | RXF 393 renal

Cc1ccc2cccc3c2c1CC1(C3=O)S(=O)(=O)OCCOS1(=O)=O
> 100 µM: SNB-75 CNS | NCI-H522 lung | OVCAR-8 ovarian | SF-268 CNS | MOLT-4 leukemia | IGROV1 ovarian | K-562 leukemia | ACHN renal | SK-MEL-28 melanoma | HCC-2998 colon | NCI-H23 lung | NCI-H460 lung | UACC-257 melanoma | DU-145 prostate | HS 578T breast | UACC-62 melanoma | U251 CNS | RXF 393 renal

O=C(CCc1ccccc1CO)NCCc1ccccc1
> 100 µM: SNB-75 CNS | NCI-H522 lung | OVCAR-8 ovarian | SF-268 CNS | MOLT-4 leukemia | IGROV1 ovarian | K-562 leukemia | ACHN renal | SK-MEL-28 melanoma | HCC-2998 colon | NCI-H23 lung | NCI-H460 lung | UACC-257 melanoma | DU-145 prostate | HS 578T breast | UACC-62 melanoma | U251 CNS | RXF 393 renal

O=c1[nH]c(Nc2cccc(Br)c2)nc2nc[nH]c12
> 100 µM: SNB-75 CNS | NCI-H522 lung | OVCAR-8 ovarian | SF-268 CNS | MOLT-4 leukemia | IGROV1 ovarian | K-562 leukemia | ACHN renal | SK-MEL-28 melanoma | HCC-2998 colon | NCI-H23 lung | NCI-H460 lung | UACC-257 melanoma | DU-145 prostate | HS 578T breast | UACC-62 melanoma | RXF 393 renal

Cc1ccc([N+](=O)[O-])cc1S(=O)(=O)Nc1ccc(C2=NNC(c3cccs3)C2)cc1 (stereo not given)
> 100 µM: SNB-75 CNS | NCI-H522 lung | OVCAR-8 ovarian | SF-268 CNS | IGROV1 ovarian | K-562 leukemia | SK-MEL-28 melanoma | HCC-2998 colon | NCI-H23 lung | NCI-H460 lung | UACC-257 melanoma | DU-145 prostate | HS 578T breast
92.9 µM: MOLT-4 leukemia
38.7 µM: RXF 393 renal
82.9 µM: ACHN renal
34.1 µM: UACC-62 melanoma

COC(=O)[C@H](Cc1ccccc1)NP(=O)(O)OCC1OC(n2cc(C)c(=O)[nH]c2=O)CC1N=[N+]=[N-] (stereo not given in full)
> 100 µM: SNB-75 CNS | NCI-H522 lung | OVCAR-8 ovarian | SF-268 CNS | MOLT-4 leukemia | IGROV1 ovarian | K-562 leukemia | ACHN renal | SK-MEL-28 melanoma | HCC-2998 colon | NCI-H23 lung | NCI-H460 lung | UACC-257 melanoma | DU-145 prostate | HS 578T breast | U251 CNS | RXF 393 renal

— PubChem BioAssay (NCI)
